In patent publication US11135231B2, “Methods and compositions for prevention and treatment of Apicomplexan infections” (Tufts Medical Center, Inc., priority 2016, dated 2021):
Like-named read-outs stand apart in the source and are kept apart here.

Tests used:
P. falciparum strains [1] = tested on: P. falciparum strains; set-up: key: R = Clinically Resistant; S + Sensitive; conditions: cited from earlier work
P. falciparum strains [2] = experiment: 3H hypoxanthine incorporation assay of P. falciparum strains in human red blood cells; type: cell-based, Plasmodium falciparum
Description: The potency of the compounds of the invention against multi-drug resistant P. falciparum strains was tested. Parasites were cultured in 96-well plates in human red blood cells at 0.5% initial parasitemia for 72 hours in the presence of dilutions of tartrolon D/E (specifically, D2 as the starting material in FIG. 11A), purified tartrolon E (FIG. 11C), dihydroartemisinin (DHA, as a positive control in FIG. 11B), or DMSO (as a negative control). Parasites proliferation was then determined by ^3H hypoxanthine incorporation.
Specifically, parasitized red blood cells (pRBCs) were grown in 0.5% Albumax I (Thermo Fisher Scientific). Assays were set up in 96-well plates at 0.5% initial parasitemia and 0.5% hematocrit. Parasites were exposed to various concentrations of Tartrolon D or E and dihydroartemisinin (DHA) for 48 hours and then pulsed with 0.5 microcuries of tritium-labeled hypoxanthine Moravek (MT-700) for another 24 hours. At the end of 72 hours, assay plates were processed through an Inotech cell harvester and collected on Inotech glass fiber filters. Filters were transferred to Omniplate-96 cassettes (Perkin Elmer) and dried overnight at room temperature. About […] of Microscint-O scintillation cocktail (Perkin Elmer) was added to each well. Each well was counted for 2 minutes on a Packard Topcount scintillation counter. The uptake of radiolabeled hypoxanthine by compound-treated pRBCs was compared relative to uptake by DMSO solvent-treated controls. […] The starting material used as the active reagent in FIG. 11C was tartrolon E, purified as follows: extract from the bacterial pellet of the Teredinibacter turnerae T7901 was purified by reversed phase HPLC using diode array detection. A C18 column (Phenomenex CHO-7878, 100×10 mm) was employed with an isocratic mobile phase (85% acetontrile in water, 3.5 mL/min) to yield tartrolon E (4.7 mg, retention time 8 min).

[3] = tested on: Plasmodium falciparum 3D7; experiment: P. falciparum SYBR green flow cytometry assay; type: cell-based; conditions: 72 hours, read-out: EC50, proliferation of Plasmodium falciparum 3D7
Description: Plasmodium falciparum: Parasites were cultured in 96-well plates at 0.5% initial parasitemia. Parasites were cultured for 72 hours in the presence of dilutions of tartrolon D2, dihydroartemisinin (DHA, a drug for treating malaria as a positive control) or DMSO after which parasites were stained with SYBR green fluorescence and enumerated by flow cytometry. The assay was conducted once and all samples were run in triplicate. Data was analyzed with GraphPad Prism as described for T. gondii.

C. parvum [4] = experiment: Neonatal mouse model of C. parvum infection, histological scoring; type: in vivo, Cryptosporidium parvum; conditions: neonatal mice, 2 mg/kg/dose b.i.d. for 4 days, histological score
Description: To determine if tartrolon D/E would be effective in vivo, the purified compound(s) of the invention was tested in a neonatal mouse model of C. parvum infection (Schaefer D A et al. (2000) Infect Immun 68(5):2608-261). Eight-day old neonatal mice were infected with C. parvum oocysts (50 times the ID50) and treated with purified tartrolon D/E (specifically, D1) or vehicle as a starting material for 4 days at 2 mg/kg/dose (b.i.d). At the end of the study period, mice were sacrificed and histological sections of jejunum, ileum, colon and caecum were examined. Infection in each section was scored by an observer blinded as to the sample identity.

Babesia bovis = experiment: SYBR green-based growth suppression assay in bovine red blood cells; type: cell-based; conditions: for EC50: SYBR green fluorescence, read-out: EC50 against B. bovis
Description: Purified tartrolon D/E (with starting materials being either D1 or D2) was tested against another apicomplexan pathogen, Babesia bovis, which proliferates in bovine red blood cells. Growth suppression of B. bovis was quantified using a modified SybrGreen-based assay (Molecular Probes, Life Sciences Technology). SYBR green is an asymmetrical cyanine dye that is used as a nucleic acid stain. In this assay, parasite replication in red blood cells is measured directly by the incorporation of SYBR green into parasite DNA. Tartrolon D/E concentrations ranging from 0.001 to 10,000 nM were tested on infected cells and DMSO (vehicle) was run in parallel as a negative control.

Toxoplasma gondii ME49 = experiment: Bright-Glo luciferase assay of parasite proliferation in HFF cells; type: cell-based
Description: Human foreskin fibroblast (HFF) cells were established in 96-well plates, and then infected with ME49 parasites engineered to express green fluorescent protein and firefly luciferase (2.5 to 5×10^5/well). Eight hours after infection, dilutions of Tartrolon D1 isolated as in Example 3, Tartrolon D2 isolated as in Example 4, or vehicle (DMSO) at equivalent concentrations were added to infected cells and the plates incubated for 24 hours (37° C., 5% CO2). Proliferation of the parasites was then measured using Bright-Glo luciferase assay system (available from Promega). Samples were run in triplicate and three independent biological replicates were conducted. The log 10 [Tartrolon D] versus percent inhibition of parasite proliferation was analyzed using the four parameter variable slope analysis in Graphpad Prism.

Theileria equi = experiment: T. equi growth in erythrocytes, hydroethidine flow cytometry; type: cell-based; conditions: Erythrocyte, 72 hours, averaged from three independent experiments, read-out: EC50, proliferation of Theileria equi
Description: Theileria equi: The effect of tartrolon D2 on T. equi growth in vitro was quantified using an assay that has been previously described by Hines, S. A. et al. (Parasit Vectors 8, 33 (2015)). Briefly, wells containing an erythrocyte concentration of 9% and a starting percentage parasitized erythrocyte (ppe) of 0.3% were established in 96-well plates. Parasites were cultured in the presence of tartrolon D2 or DMSO for 72 hours with a change of media and compound every 24 hours. After 72 hours, the parasites were stained with hydroethidine and enumerated by flow cytometry (FACSCaliber). Samples were run in triplicate and three independent experiments conducted. The data was analyzed and the EC50 values calculated as described above for T. gondii ME49.

Sarcocystis neurona = experiment: S. neurona luciferase proliferation assay in bovine turbinate cells; type: cell-based; conditions: BT cells, 96 hours
Description: Sarcocystis neurona: Bovine turbinate cells (BT cells, ATCC CRL-1390, American Type Culture Collection, Manassas, Va.) were seeded into 96-well plates and infected with S. neurona merozoites that had been engineered to express green fluorescent protein and firefly luciferase (2×10^4/well). Dilutions of tartrolon D2 or DMSO were added to the infected cells and the plates incubated for 96 hours (37° C., 5% CO2). After 96 hours, parasite proliferation was quantified and the data analyzed as described with T. gondii ME49. The assay was conducted once and all samples were run in triplicate.

Plasmodium berghei = experiment: Plasmodium berghei-luciferase infection in mice, IVIS imaging; type: in vivo; conditions: 8 mg/kg intraperitoneal once per day for 5 days, imaged seven days after infection
Description: Mice were infected with Plasmodium berghei expressing luciferase. 48 hours post infection mice were treated with tartrolon D/E (specifically, D2) initially solubilized in 2% methylcellulose and 0.5% Tween80 by intraperitoneal injection for 5 days, once per day. Control mice were treated with vehicle alone. Seven days after infection, mice were given luciferase substrate (150 mg/kg D-luciferin Potassium salt in PBS (Goldbio)) and imaged in an IVIS Lumina II to quantify level of infection.

C. parvum [5] = experiment: Neonatal mouse C. parvum infection, quantitative PCR of intestinal parasites; type: in vivo, Cryptosporidium parvum; conditions: neonatal mice, qPCR
Description: To confirm the in vivo activity against Cryptosporidium parvum, neonatal mice were infected with C. parvum (5×10^4 oocysts per mouse), and 24 hours after infection, the mice were dosed twice daily for 4 days with either 4 or 40 mg/kg of tartrolon D/E (specifically, D2) in starting concentrations. Day 5 post-infection, the mice were sacrificed, the intestines collected and total DNA extracted. Intestinal parasite numbers were quantified by quantitative PCR (qPCR) of the C. parvum HSP70 gene and extrapolation to a standard curve standard curve of known oocyst numbers (see Shahiduzzaman, et al., Vet Parasitol 167, 43-9 (2010)). At both the high and the low dose of Tartrolon D/E, nearly 100% of the parasites were eliminated from the intestine as measured by quantitative PCR.

[6] = cell line 3D7 (Netherlands, clone of NF54)
[7] = cell line Goan Isolate (Goa, India)

| SMILES | Drug resistance phenotype (P. falciparum strains [1]; [6]) | Drug resistance phenotype (P. falciparum strains [1]; cell line 7G8 (Brazil)) | Drug resistance phenotype (P. falciparum strains [1]; cell line D6 (Sierra Leone)) | Drug resistance phenotype (P. falciparum strains [1]; cell line Dd2 (SE Asia)) | Drug resistance phenotype (P. falciparum strains [1]; [7]) | Drug resistance phenotype (P. falciparum strains [1]; cell line HB3 (Honduras)) | Drug resistance phenotype (P. falciparum strains [1]; cell line NF54 (Netherlands)) | Drug resistance phenotype (P. falciparum strains [1]; cell line V1/S (Vietnam)) | further results |
| --- | --- | --- | --- | --- | --- | --- | --- | --- | --- |
| CC1(C)N=C(N)N=C(N)N1c1ccc(Cl)cc1 [Cycloguanil] | S | R | S | R | R | S | S | R | Drug resistance phenotype (P. falciparum strains [1]; cell line TM90C2A (Thailand)): R |
| C[C@H]1[C@@H](O)O[C@@H]2O[C@@]3(C)CC[C@H]4[C@H](C)CC[C@@H]1[C@@]24OO3 [Dihydroartemisinin, dihydroartemisinin] |  |  |  |  |  |  |  |  | EC50 (P. falciparum strains [2]; Plasmodium falciparum, 3D7, Erythrocyte, parasite line 3D7, read-out: EC50): 200 pM; EC50 (P. falciparum strains [2]; Plasmodium falciparum, DD2, Erythrocyte, parasite line Dd2, read-out: EC50): 140 pM; EC50 (P. falciparum strains [2]; Plasmodium falciparum, Erythrocyte, parasite line 7G8, read-out: EC50): 95 pM; EC50 (P. falciparum strains [2]; Plasmodium falciparum, Erythrocyte, parasite line 2012 Indian Isolate (Goa), read-out: EC50): 210 pM; EC50 (P. falciparum strains [2]; Plasmodium falciparum, Erythrocyte, parasite line D6, read-out: EC50): 170 pM; EC50 (P. falciparum strains [2]; Plasmodium falciparum, Erythrocyte, parasite line V1S, read-out: EC50): 84 pM; EC50 (P. falciparum strains [2]; Plasmodium falciparum, HB3, Erythrocyte, parasite line HB3, read-out: EC50): 160 pM; EC50 (P. falciparum strains [2]; Plasmodium falciparum, NF54, Erythrocyte, parasite line NF54, read-out: EC50): 150 pM; EC50 (P. falciparum strains [2]; Plasmodium falciparum, TM90C2A, Erythrocyte, parasite line TM90C2A, read-out: EC50): 91 pM; EC50 (P. falciparum strains [2]; parasite line 3D7, listed as Dihydroartemisinin (DHA), read-out: EC50): 110 pM; EC50 [3]: ~20 pM |
| OC(c1cc(C(F)(F)F)nc2c(C(F)(F)F)cccc12)C1CCCCN1 (stereo not shown) [Mefloquine] | S | S | S | R | S | S | S | S | Drug resistance phenotype (P. falciparum strains [1]; cell line TM90C2A (Thailand)): R |
| C=C[C@H]1C[N@@]2CC[C@H]1C[C@H]2[C@H](O)c1ccnc2ccc(OC)cc12 [Quinine] | S | R | S | R |  | S | S | R |  |
| COc1ncnc(NS(=O)(=O)c2ccc(N)cc2)c1OC [Sulfodoxine] | R |  | S | R | R | S | R |  |  |
| C[C@@H]1C(=O)C[C@@H](O)CC/C=C/C=C\CC[C@H](C)OC(=O)C(O)[C@]2(O)O[C@@H](CC[C@H]2C)[C@H](C)C(=O)C[C@@H](O)CC/C=C/C=C\CC[C@H](C)OC(=O)C(O)[C@]2(O)O[C@H]1CC[C@H]2C (stereo partly shown) [Tartrolon D1, tartrolon D] |  |  |  |  |  |  |  |  | inhibition of infection (C. parvum [4]): about 50%; concentration at which parasites did not incorporate any more fluorescence than uninfected red blood cells (Babesia bovis): more than 20 nM; EC50 (Babesia bovis; Babesia bovis, Erythrocyte): 11200 pM; EC50 (Toxoplasma gondii ME49; Toxoplasma gondii, HFF, read-out: EC50 against T. gondii ME49, added 8 h after infection, 24 hours, 3 independent experiments): 3400 pM |
| C[C@@H]1C(=O)C[C@@H](O)CC/C=C/C=C\CC[C@H](C)OC(=O)C(O)[C@]2(O)O[C@@H](CC[C@H]2C)[C@H](C)C(=O)C[C@@H](O)CC/C=C/C=C\CC[C@H](C)OC(=O)C(O)[C@]2(O)O[C@H]1CC[C@H]2C (stereo partly shown) [Tartrolon D2, tartrolon D] |  |  |  |  |  |  |  |  | EC50 (Theileria equi): ~350 pM; EC50 (Sarcocystis neurona): ~13200 pM; P. berghei infection (luminescence) (Plasmodium berghei): reduced P. berghei infection; parasites eliminated from the intestine (C. parvum [5]; high dose 40 mg/kg twice daily for 4 days from 24 h after infection): ~100%; parasites eliminated from the intestine (C. parvum [5]; low dose 4 mg/kg twice daily for 4 days from 24 h after infection): ~100%; EC50 [3]: ~105 pM; EC50 (Babesia bovis; listed as tartrolon D2/E): 16000 pM; EC50 (Toxoplasma gondii ME49; read-out: EC50 against T. gondii ME49, added 8 h after infection, 24 hours, 3 independent experiments): 2700 pM |
| C[C@@H]1CCC2CC(=O)C[C@@H](O)CC/C=C/C=C\CC[C@H](C)OC(=O)[C@@H]3O[B-]45O[C@@H](C(=O)O[C@@H](C)CC/C=C\C=C\CC[C@H](O)CC(=O)CC6CC[C@@H](C)[C@]3(O6)O4)[C@@]1(O2)O5 [Tartrolon E, tartrolon E] |  |  |  |  |  |  |  |  | EC50 (P. falciparum strains [2]; strain Dd2, purified tartrolon E as starting material (FIG. 11C), read-out: EC50 against Dd2): ~160 pM |
